These results are taken from US20230242532A1, “TETRACYCLIC PYRIMIDINONE COMPOUND, PREPARATION METHOD THEREFOR, AND COMPOSITION AND USE THEREOF” (NEUSCO BIOTECH LIMITED, priority 2019, published 2023).

Assay [1] deals with T1, recombinant human Lp-PLA2 enzyme (Homo sapiens, UniProt Q13093).
T1 sequence (Q13093 22-441): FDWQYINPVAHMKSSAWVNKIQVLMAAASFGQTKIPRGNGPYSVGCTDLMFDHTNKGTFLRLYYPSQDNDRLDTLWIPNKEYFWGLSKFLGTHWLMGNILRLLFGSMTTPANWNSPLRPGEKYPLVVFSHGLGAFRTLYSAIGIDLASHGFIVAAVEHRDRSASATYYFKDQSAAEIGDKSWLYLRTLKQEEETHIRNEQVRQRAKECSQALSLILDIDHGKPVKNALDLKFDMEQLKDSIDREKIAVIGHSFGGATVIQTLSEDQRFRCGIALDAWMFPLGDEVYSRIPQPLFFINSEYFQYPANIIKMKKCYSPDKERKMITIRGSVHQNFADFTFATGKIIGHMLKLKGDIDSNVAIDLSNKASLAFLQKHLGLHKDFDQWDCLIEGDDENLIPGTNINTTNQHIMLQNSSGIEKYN
In words: Recombinant human Lp-PLA2 assay (rhLp-PLA2), PED6 assay. Format: biochemical. Here is the method: (1) Recombinant Human Lp-PLA2 Assay (rhLp-PLA2), Also Referred to as PED6 Assay
PED6 was a fluorescently-labeled phospholipid that could be purchased dorectly from Invitogene or Molecular Probes. […] Once cleaved by the Lp-PLA2 enzyme, it would release the FL group, resulting in enhanced fluorescence.
Assay Method: The compound to be tested (as shown in Table 1) was mixed with a DMSO solution in a volume ratio of 1:3, and diluted to prepare a source plate of a 384-well microplate. Then 0.01 μl of the compound was transferred via an ECHO liquid dispenser from the source plate to a 384-well Greiner 784076 plate, and 5 μl of a buffer consisting of 50 mM HEPES, pH7.4, 150 mM NaCl, and 1 mM CHAPS (the buffer solution containing a recombinant human Lp-PLA2 enzyme at a concentration of 4 nM or 110 pM) was added to each well of the plate. The plate was centrifuged at 500 rpm for 10 seconds. After a 30-min pre-incubation, 5 μl of the above-mentioned buffer was added to a 384-well Greiner 784076 plate, the plate was centrifuged at 500 rpm for 10 seconds.

Assay [2] deals with T2, Lp-PLA2 enzyme in human plasma (Homo sapiens, UniProt Q13093).
T2 construct: from tissue; host or cells: mixed (pooled) human plasma
T2 sequence (Q13093 22-441): T1 sequence (Q13093 22-441)
The experiment in a line: Assay of Lp-PLA2 in human plasma (Thio-PAF assay). The class given is biochemical. Here is the method:
(2) Assay of Lp-PLA2 in Human Plasma (Also Referred to as Thio-PAF Assay)
The human plasma assay was conducted using the sulphatide analog of PAF (phosphatidylcholine). After hydrolysis, it would generate phospholipids containing free sulfhydryl groups, which would be subjected to Michael addition with CPM to generate fluorescence-enhancing maleimide. Continuous quantitative analysis of thiol could be conducted by detecting the fluorescence intensity. This assay could be used to detect the inhibitory activity of the Lp-PLA2 inhibitor on the Lp-PLA2 enzyme in human plasma.
Assay Method: The compound to be tested (as shown in Table 2) was mixed with a DMSO solution in a volume ratio of (1:3), and diluted to prepare a source plate of a 384-well microplate. Then 0.01 μl of the compound was transferred via an ECHO liquid dispenser from the source plate to a 384-well Greiner 784076 plate, and 8 μl of pre-aliquoted and frozen mixed human plasma was then added. The plate was centrifuged at 500 rpm for 10 seconds. After a 30-min pre-incubation, 2 μl of a substrate solution, and a buffer containing 2.5 mM 2-thio-PAF (a solution in ethanol), 32 μM CPM (a solution in DMSO) and 3.2 mM N-ethylmaleimide (NEM) (a buffer solution consisting of 50 mM HEPES, pH7.4, 150 mM NaCl, 1 mM CHAPS) was added by a BRAVO liquid handling station to a 384-well Greiner 784076 low-volume plate. Two minutes later, the reaction was quenched with 5 μl of 5% trifluoroacetic acid. After the plate was incubated at room temperature for 40 min in a dark place, the fluorescence intensity was read at ex 380/em 485 with an Envision microplate reader, and the XL fitting model in Excel was used to perform the curve analysis and QC analysis to calculate pIC50.

[3] abbreviates: PED6 substrate, recombinant human Lp-PLA2 at 4 nM or 110 pM, 30-min pre-incubation, fluorescence ex 480/em 540, read-out: rhLp-PLA2 (pIC50) (converted).
Where [4] appears, read: mixed human plasma, 2-thio-PAF substrate with CPM, 30-min pre-incubation, fluorescence ex 380/em 485, read-out: Thio-PAF (pIC50) (converted).

Where two headings read alike, the source gives them in different places.

For the molecule `O=c1nc(OCc2cc(F)c(Oc3cnc(C(F)(F)F)nc3)c(F)c2)cc2n1CC13CCC(CC1)N23` [Compound 13], the IC50 was 0.251 nM in assay [1] (setting [3]) and 20 nM in assay [2] (setting [4]).
On the same counts, the results for `Cc1ncc(Oc2c(F)cc(COc3cc4n(c(=O)n3)CC35CCCC(CC3)N45)cc2F)cn1` (stereo not drawn) [Compound 19] are 0.316 nM and 15.8 nM.
With `O=c1nc(OCc2cccc(F)c2F)cc2n1CC13CCC(CC1)N23` [Compound 1], the figures for the IC50 in assay [1] and in assay [2] were 2.51 nM and 100 nM, respectively.
As for `Cc1cc(Oc2c(F)cc(COc3cc4n(c(=O)n3)CC35CCC(CC3)N45)cc2F)ccn1` [Compound 7], the IC50 in assay [1] (setting [3]) was 0.0398 nM; in assay [2] (setting [4]), 3.16 nM.
On the same counts, the results for `O=c1nc(OCc2cc(F)c(Oc3ccnc(C(F)(F)F)c3)c(F)c2)cc2n1CC13CCC(CC1)N23` [Compound 4] are 0.0398 nM and 3.98 nM.
The matching figures for `Cc1ncc(Oc2c(F)cc(COc3cc4n(c(=O)n3)CC35CCC(CC3)N45)cc2F)cn1` [Compound 9]: 0.1 nM and 12.6 nM.
As for `O=c1nc(OCc2cc(F)c(Oc3ccc(C(F)(F)F)nc3)c(F)c2)cc2n1CC13CCC(CC1)N23` [Compound 6], the figures for the IC50 in assay [1] (setting [3]) and in assay [2] (setting [4]) were 0.0501 nM and 7.94 nM, respectively.
Regarding `O=c1nc(OCc2ccc(F)c(F)c2)cc2n1CC13CCC(CC1)N23` [Compound 3], the figures for the IC50 in assay [1] and in assay [2] were 0.501 nM and 15.8 nM, respectively.
For `O=c1nc(OCc2cc(F)c(Oc3ccc(C(F)(F)F)cc3)c(F)c2)cc2n1CC13CCC(CC1)N23` [Compound 5], the figures for the IC50 in assay [1] (setting [3]) and in assay [2] (setting [4]) were 0.0316 nM and 6.31 nM, respectively.
The matching figures for `O=c1nc(OCc2cc(F)c(Oc3ccc(C(F)(F)F)c(Cl)c3)c(F)c2)cc2n1CC13CCC(CC1)N23` [Compound 14]: 0.0794 nM and 7.94 nM.
`O=c1nc(OCc2cc(F)c(Oc3cccc(OC(F)(F)F)c3)c(F)c2)cc2n1CC13CCC(CC1)N23` [Compound 16]: the IC50 was 0.1 nM in assay [1] (setting [3]) and 12.6 nM in assay [2] (setting [4]).
As for `O=c1nc(OCc2cc(F)c(Oc3ccc(OC(F)(F)F)c(Cl)c3)c(F)c2)cc2n1CC13CCC(CC1)N23` [Compound 17], the values for the IC50 in assay [1] (setting [3]) and in assay [2] (setting [4]) were 0.0794 nM and 10 nM, respectively.
The matching figures for `Cc1cc(Oc2c(F)cc(COc3cc4n(c(=O)n3)CC35CCC(CC3)N45)cc2F)ccc1Cl` [Compound 12]: 0.0794 nM and 10 nM.
On the same counts, the results for `O=c1nc(OCc2cc(F)c(Oc3ccnc(C(F)(F)F)c3)c(F)c2)cc2n1CC13CCCC(CC1)N23` (stereo not drawn) [Compound 18] are 0.1 nM and 7.94 nM.
On the same counts, the results for `O=c1nc(OCc2cc(F)c(Oc3ccc(Cl)c(C(F)(F)F)c3)c(F)c2)cc2n1CC13CCC(CC1)N23` [Compound 10] are 0.0631 nM and 7.94 nM.
With `O=c1nc(OCc2cc(F)c(Oc3cccc(C(F)(F)F)c3)c(F)c2)cc2n1CC13CCC(CC1)N23` [Compound 11], the IC50 is 0.0794 nM in assay [1] (setting [3]) and 12.6 nM in assay [2] (setting [4]).
The matching figures for `Cc1ccc(Oc2c(F)cc(COc3cc4n(c(=O)n3)CC35CCC(CC3)N45)cc2F)cn1` [Compound 8]: 0.0316 nM and 7.94 nM.
As to `O=c1nc(OCc2ccc(F)cc2)cc2n1CC13CCC(CC1)N23` [Compound 2], the IC50 in assay [1] was 0.794 nM; in assay [2], 25.1 nM.
